Data on 23 molecules can be found in US7951815B2, “Substituted 1,4,8-triazaspiro [4,5]decan-2-one compounds” (Gruenenthal GmbH, priority 2004, dated 2011).

By inhibition is commonly meant the share of the control response that was lost under treatment.

One assay addresses T1, 5-HT transporter (Rattus norvegicus, UniProt P31652).
T1 construct: synaptosomes of rat brain areas are freshly isolated; from tissue; host or cells: rat brain synaptosomes (P2 fraction) from marrow and pons
Nature of the assay: Inhibition of 5-HT uptake in rat brain synaptosomes. It is filed as biochemical. As to conditions: rat, 1 μM; for inhibition at 1 µM: read-out: Uptake 5-HT, % inhibition.

The subject of assay [1] is batrachotoxin (BTX) binding site of the sodium channel. The assay is described as follows: Affinity to the batrachotoxin (BTX) binding site of the sodium channel. As to conditions: rat cerebrocortex synaptosomes, test concentration not given.
In another assay the target is human μ-opioid receptor (Homo sapiens, UniProt P35372). The assay is described as follows: Affinity to the human μ-opioid receptor ([3H]-naloxone displacement). As to conditions: for μ (Naloxone), 1 μM, % inhibition: Table II, [3H]-naloxone.
In a further assay the test system is NA transporter. Nature of the assay: Inhibition of noradrenaline uptake in rat brain synaptosomes. The class given is biochemical. To be noted: Table III.
The next assay has as its system male NMRI mice. The assay is described as follows: Analgesic test using the phenylquinone-induced writhing test on mice. To be noted: 10 mg/kg intravenous. The class given is in vivo. Here is the method:
The analysis of analgesic activity is carried out using the phenylquinone-induced writhing assay in mice, modified as described in the article by I. C. Hendershot and J. Forsaith ((1959) in J. Pharmacol. Exp. Ther. 125, 237-240).
For the present purpose, male NMRI mice are used having a weight of from 25 to 30 g. Groups of 10 animals per substance dose receive, 10 minutes after an intravenous dose of test substances, an intraperitoneal administration of 0.3 ml/mouse of a 0.02% strength aqueous solution of phenylquinone (phenylbenzoquinone, obtainable from Sigma, Deisenhofen; solution produced with the addition of 5% of ethanol and storage in a water bath at 45° C.). The animals are placed individually in observation cages. Using a pushbutton counter, the number of pain-induced stretching movements (so-called writhing reactions=straightening of the body accompanied by stretching of the rear extremities) was counted over a period of from 5 to 20 minutes following the administration of phenylquinone. The control is provided by animals receiving only physiological saline. All substances are tested using the standard dosage of 10 mg/kg.
For orientation: In writhing tests, fewer writhes than in controls are read as antinociception.

Several values for one entry are separate records, joined by “and”; a condition that tells them apart may be missing. Identical values can stand only once. Like-named read-outs stand apart in the source and are kept apart here.

Sequence of human μ-opioid receptor (P35372 whole entry): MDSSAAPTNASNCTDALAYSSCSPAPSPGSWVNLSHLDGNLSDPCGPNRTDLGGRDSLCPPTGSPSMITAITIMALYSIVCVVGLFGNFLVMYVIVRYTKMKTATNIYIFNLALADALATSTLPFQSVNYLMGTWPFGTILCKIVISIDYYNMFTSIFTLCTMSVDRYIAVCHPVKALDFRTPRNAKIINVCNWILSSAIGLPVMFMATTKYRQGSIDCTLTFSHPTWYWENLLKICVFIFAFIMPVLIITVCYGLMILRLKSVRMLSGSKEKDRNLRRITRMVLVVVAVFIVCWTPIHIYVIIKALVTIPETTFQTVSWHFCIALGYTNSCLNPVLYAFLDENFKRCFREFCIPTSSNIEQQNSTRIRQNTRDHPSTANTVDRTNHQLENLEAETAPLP
T1 sequence (P31652 whole entry): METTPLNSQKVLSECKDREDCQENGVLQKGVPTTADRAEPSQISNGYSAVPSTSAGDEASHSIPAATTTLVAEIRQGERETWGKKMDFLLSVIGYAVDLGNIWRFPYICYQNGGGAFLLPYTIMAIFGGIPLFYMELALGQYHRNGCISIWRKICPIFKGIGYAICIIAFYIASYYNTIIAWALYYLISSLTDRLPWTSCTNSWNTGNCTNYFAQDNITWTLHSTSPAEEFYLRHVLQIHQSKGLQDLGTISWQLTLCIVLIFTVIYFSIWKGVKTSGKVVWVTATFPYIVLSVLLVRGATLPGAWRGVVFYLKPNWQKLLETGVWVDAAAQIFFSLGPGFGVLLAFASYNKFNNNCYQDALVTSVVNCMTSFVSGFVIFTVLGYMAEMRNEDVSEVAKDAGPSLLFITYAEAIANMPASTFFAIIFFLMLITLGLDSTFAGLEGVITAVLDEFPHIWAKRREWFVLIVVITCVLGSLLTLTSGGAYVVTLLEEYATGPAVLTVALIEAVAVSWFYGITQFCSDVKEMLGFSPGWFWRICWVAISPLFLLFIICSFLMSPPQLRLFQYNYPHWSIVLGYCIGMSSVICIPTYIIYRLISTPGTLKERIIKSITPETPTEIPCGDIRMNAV
Experimental for human μ-opioid receptor: The receptor affinity to the human μ-opioid receptor is determined in a homogeneous batch in microtiter plates. For this purpose, dilution series of the substances to be tested are incubated at room temperature for 90 minutes in a total volume of 250 μL with a receptor membrane preparation (15-40 μg of protein/250 μL of incubation batch) of CHO-K1 cells which express the human μ-opioid receptor (RB-HOM receptor membrane preparation supplied by NEN, Zaventem, Belgium) in the presence of 1 nmol/L of the radioactive ligand [^3H]-naloxone (NET 719, supplied by NEN, Zaventem, Belgium), and of 1 mg of WGA-SPA beads (wheat germ agglutinin SPA beads supplied by Amersham/Pharmacia, Freiburg, Germany). As incubation buffer, 50 mmol/L of tris HCl supplemented with 0.05% (weight/volume) of sodium azide and with 0.06% (weight/volume) of bovine serum albumin is used. For determination of the nonspecific binding, 25 μmol/L of naloxone are added. On completion of the ninety-minute incubation time, the microtiter plates are centrifuged for 20 minutes at 1000 g and the radioactivity is measured in a β-counter (Microbeta-Trilux, supplied by PerkinElmer Wallac, Freiburg, Germany).
Based on the percentage displacement produced by different concentrations of the test substances, IC50 inhibitory concentrations are calculated which cause a 50 percent displacement of the radioactive ligand. As a result of recalculation using the Cheng-Prusoff relationship, the Ki values for the test substances can be obtained, as described in the publication of Y. Cheng, W. H. Prusoff, 1973, Biochem. Pharmacol., 22, pages 3099-3108.

Turning to `Cl.O=C(COc1ccccc1)N1CCC2(CC1)N[C@@H](Cc1ccccc1)C(=O)N2Cc1ccccc1` [Example 57, 1,3-(S)-dibenzyl-8-(2-phenoxyacetyl)-1,4,8-triazaspiro[4,5]decan-2-one hydrochloride], the inhibition at 1 µM worked out at 72% on 5-HT transporter (Table II) and 60% on human μ-opioid receptor (read-out: μ (Naloxone), 1 μM, % inhibition). The same molecule registered a BTX inhibition in assay [1] (Table II) of 44.

For the molecule `CC(C)CC1NC2(CCN(C(=O)c3cccnc3Cl)CC2)N(Cc2ccc(F)cc2)C1=O` (stereo not shown) [Example 118, 8-(2-Chloropyridin-3-carbonyl)-1-(4-fluorobenzyl)-3-isobutyl-1,4,8-triazaspiro[4,5]decan-2-one], the inhibition at 1 µM on 5-HT transporter (Table III) is 38%. In assay [1] (Table III), this molecule had a BTX inhibition of 44. Besides, the “Uptake (NA), rat, 10 μM, % inhibition” value in the assay with NA transporter was determined as 30%.

For the molecule `CCOC(=O)C(C)(C)C(=O)N1CCC2(CC1)NC(CCSC)C(=O)N2Cc1ccccc1[N+](=O)[O-]` (stereo not shown) [Example 331, Ethyl 1,1-dimethyl-2-[3-(2-methylsulfanylethyl)-1-(2-nitrobenzyl)-2-oxo-1,4,8-triazaspiro[4,5]dec-8-yl]-2-oxo-acetate], the “Uptake 5-HT, rat, 1 μM, % inhibition” value at 5-HT transporter (Table III) stood at 58%. In assay [1] (Table III), this molecule displayed a BTX inhibition of 46. The “Uptake (NA), rat, 10 μM, % inhibition” value in the assay on NA transporter is 38%.

In the case of `CSCCC1NC2(CCN(C(=O)c3cccnc3Oc3ccccc3)CC2)N(Cc2ccccc2[N+](=O)[O-])C1=O` (stereo not shown) [Example 298, 3-(2-Methylsulfanylethyl)-1-(2-nitrobenzyl)-8-(2-phenoxypyridin-3-carbonyl)-1,4,8-triazaspiro[4,5]decan-2-one], the inhibition at 1 µM at 5-HT transporter (Table III) was found to be 34%. Moreover, the BTX inhibition in assay [1] (Table III) amounted to 48. The “Uptake (NA), rat, 10 μM, % inhibition” value with NA transporter is 30%.

As for `Cl.O=C(c1ccc(C(F)(F)F)c(F)c1)N1CCC2(CC1)N[C@@H](Cc1ccccc1)C(=O)N2Cc1ccccc1` [Example 53, 1,3-(S)-dibenzyl-8-(3-fluoro-4-trifluoromethylbenzoyl)-1,4,8-triazaspiro[4,5]decan-2-one hydrochloride], the “% Inhibition of the writhing reaction (Dosage in mg/kg intravenous)” value (“% Inhibition of the writhing reaction” for short) with male NMRI mice is given as 30 (10) %. Further, in assay [1] (Table II), the BTX inhibition turned out to be 48.

For the molecule `Cl.O=C(COc1ccc(Cl)cc1)N1CCC2(CC1)N[C@@H](Cc1ccccc1)C(=O)N2Cc1ccccc1` [Example 55, 1,3-(S)-dibenzyl-8-[2-(4-chlorophenoxy)acetyl]-1,4,8-triazaspiro[4,5]decan-2-one hydrochloride], the “% Inhibition of the writhing reaction” value in the assay on male NMRI mice is 45 (10) %. In assay [1] (Table II), this molecule showed a BTX inhibition of 64.

As to `Cl.O=C(c1ccc(Cl)cc1)N1CCC2(CC1)N[C@@H](Cc1ccccc1)C(=O)N2Cc1ccccc1` (racemic) [Example 29, 1,3-(S,R)-dibenzyl-8-(4-chlorobenzoyl)-1,4,8-triazaspiro[4,5]decan-2-one hydrochloride], at 5-HT transporter (Table II, hydrochloride), the “Uptake 5-HT, rat, 1 μM, % inhibition” value was 80% and 45%. Moreover, the BTX inhibition in assay [1] (Table II, hydrochloride) was 65 and 60. Besides, on human μ-opioid receptor, the “μ (Naloxone), 1 μM, % inhibition” value was found to be 38%.

In assay [1] (Table II), `Cl.O=C1NC2(CCN(C(=O)c3ccc(Cl)cc3)CC2)N[C@H]1Cc1ccccc1` (racemic) [Example 10, 3-(S,R)-Benzyl-8-(4-chlorobenzoyl)-1,4,8-triazaspiro[4,5]decan-2-one hydrochloride] gave a BTX inhibition of 53. Moreover, the “μ (Naloxone), 1 μM, % inhibition” value at human μ-opioid receptor is reported as 94%.

For `CCC(CC)C(=O)N1CCC2(CC1)N[C@@H](Cc1ccccc1)C(=O)N2Cc1ccc(F)cc1.Cl` (racemic) [Example 31, 3-(S,R)-benzyl-8-(2-ethylbutyryl)-1-(4-fluorobenzyl)-1,4,8-triazaspiro[4,5]decan-2-one hydrochloride], on 5-HT transporter (Table II), the “Uptake 5-HT, rat, 1 μM, % inhibition” value was 34%. For the same molecule, the “% Inhibition of the writhing reaction” value with male NMRI mice is 36 (10) %. In assay [1] (Table II), this molecule returned a BTX inhibition of 61.

Regarding `CCOC(=O)CCC(=O)N1CCC2(CC1)NCC(=O)N2Cc1ccccc1F` [Example 270, Ethyl 4-[1-(2-fluorobenzyl)-2-oxo-1,4,8-triazaspiro[4,5]dec-8-yl]-4-oxo-butanate], on 5-HT transporter (Table III), the inhibition at 1 µM was determined as 31%. The same molecule registered a BTX inhibition in assay [1] (Table III) of 33. The “Uptake (NA), rat, 10 μM, % inhibition” value in the assay on NA transporter was 37%.

As for `COc1ccccc1C(=O)N1CCC2(CC1)NC(Cc1ccccc1)C(=O)N2Cc1ccccc1F` (stereo not shown) [Example 274, 3-Benzyl-1-(2-fluorobenzyl)-8-(2-methoxybenzoyl)-1,4,8-triazaspiro[4,5]decan-2-one], the inhibition at 1 µM on 5-HT transporter (Table III) came out at 97%. In assay [1] (Table III), this molecule registered a BTX inhibition of 85. For the same molecule, in the assay on NA transporter, the “Uptake (NA), rat, 10 μM, % inhibition” value turned out to be 64%.

For the molecule `CCOc1ccccc1C(=O)N1CCC2(CC1)NCC(=O)N2Cc1ccccc1F` [Example 280, 8-(2-Ethoxybenzoyl)-1-(2-fluorobenzyl)-1,4,8-triazaspiro[4,5]decan-2-one], on 5-HT transporter (Table III), the inhibition at 1 µM is 60%. This molecule also gave a BTX inhibition in assay [1] (Table III) of 30. The “Uptake (NA), rat, 10 μM, % inhibition” value in the assay on NA transporter stood at 35%.

With `CCOC(=O)CN1C(=O)C(Cc2ccccc2)NC12CCN(C(=O)c1ccc(-c3ccccc3)cc1)CC2` (stereo not shown) [Example 266, Ethyl [3-benzyl-8-(biphenyl-4-carbonyl)-2-oxo-1,4,8-triazaspiro[4,5]dec-1-yl]acetate], the inhibition at 1 µM at 5-HT transporter (Table III) is 94%. Moreover, in assay [1] (Table III), the BTX inhibition is 57. Moreover, the “Uptake (NA), rat, 10 μM, % inhibition” value in the assay with NA transporter is recorded as 38%.

As for `CCOC(=O)CN1C(=O)C(Cc2ccccc2)NC12CCN(C(=O)c1ccc(NC(C)=O)cc1)CC2` (stereo not shown) [Example 256, Ethyl [8-(4-acetylaminobenzoyl)-3-benzyl-2-oxo-1,4,8-triazaspiro[4,5]dec-1-yl]acetate], the inhibition at 1 µM at 5-HT transporter (Table III) stood at 94%. Also, the BTX inhibition in assay [1] (Table III) worked out at 48. Further, the “Uptake (NA), rat, 10 μM, % inhibition” value with NA transporter stood at 57%.

With `CC(C)CC1NC2(CCN(C(=O)c3cccc(N(C)C)c3)CC2)N(Cc2ccccc2C#N)C1=O` (stereo not shown) [Example 111, 2-[8-(3-Dimethylaminobenzoyl)-3-isobutyl-2-oxo-1,4,8-triazaspiro[4,5]dec-1-ylmethyl]benzonitrile], the inhibition at 1 µM on 5-HT transporter (Table III) stood at 58%. In assay [1] (Table III), this molecule yielded a BTX inhibition of 42. The “Uptake (NA), rat, 10 μM, % inhibition” value in the assay on NA transporter is on record as 38%.

For the molecule `C#CCN1C(=O)C(CC(C)C)NC12CCN(C(=O)COc1ccc(Cl)cc1)CC2` (stereo not shown) [Example 104, 8-[2-(4-Chlorophenoxy)acetyl]-3-isobutyl-1-prop-2-ynyl-1,4,8-triazaspiro[4,5]decan-2-one], the inhibition at 1 µM on 5-HT transporter (Table III) was found to be 48%. In assay [1] (Table III), the BTX inhibition is reported as 41. Further, the “Uptake (NA), rat, 10 μM, % inhibition” value with NA transporter came out at 36%.

Consider `Cc1cc(C(=O)N2CCC3(CC2)NC(CC(C)C)C(=O)N3Cc2c(Cl)cccc2Cl)c(C)o1` (stereo not shown) [Example 295, 1-(2,6-Dichlorobenzyl)-8-(2,5-dimethylfuran-3-carbonyl)-3-isobutyl-1,4,8-triazaspiro[4,5]decan-2-one], for which the BTX inhibition in assay [1] (Table III) is 63. Besides, in the assay with NA transporter, the “Uptake (NA), rat, 10 μM, % inhibition” value worked out at 36%.

Turning to `CN(C)c1cccc(C(=O)N2CCC3(CC2)NC(Cc2ccccc2)C(=O)N3Cc2ccccc2)c1` (stereo not shown) [Example 99, 1,3-Dibenzyl-8-(3-dimethylaminobenzoyl)-1,4,8-triazaspiro[4,5]decan-2-one], on 5-HT transporter (Table III), the inhibition at 1 µM is 79%. The molecule also had a BTX inhibition in assay [1] (Table III) of 66. For the same molecule, the “Uptake (NA), rat, 10 μM, % inhibition” value in the assay on NA transporter was 42%.

For `O=C(c1ccc2nonc2c1)N1CCC2(CC1)NCC(=O)N2Cc1ccccc1F` [Example 304, 8-(Benzo[1,2,5]oxadiazole-5-carbonyl)-1-(2-fluorobenzyl)-1,4,8-triazaspiro[4,5]decan-2-one], the inhibition at 1 µM at 5-HT transporter (Table III) came out at 34%. The BTX inhibition in assay [1] (Table III) was 33. Further, in the assay on NA transporter, the “Uptake (NA), rat, 10 μM, % inhibition” value was found to be 37%.

Regarding `CCC(CC)C(=O)N1CCC2(CC1)NC(=O)[C@H](Cc1ccccc1)N2.Cl` [Example 2, 3-(S)-Benzyl-8-(2-ethylbutyryl)-1,4,8-triazaspiro[4,5]decan-2-one hydrochloride], the “% Inhibition of the writhing reaction” value with male NMRI mice was 51 (10) %.

Turning to `CCOC(=O)CN1C(=O)C(CCSC)NC12CCN(C(=O)c1ccc(C(C)(C)C)cc1)CC2` (stereo not shown) [Example 297, Ethyl [8-(4-tert-butylbenzoyl)-3-(2-methylsulfanylethyl)-2-oxo-1,4,8-triazaspiro[4,5]dec-1-yl]acetate], the BTX inhibition in assay [1] (Table III) amounted to 36. The “Uptake (NA), rat, 10 μM, % inhibition” value in the assay on NA transporter was found to be 32%.

Regarding `C=CCCC(=O)N1CCC2(CC1)NCC(=O)N2Cc1ccccc1F` [Example 287, 1-(2-Fluorobenzyl)-8-pent-4-enoyl-1,4,8-triazaspiro[4,5]decan-2-one], at 5-HT transporter (Table III), the inhibition at 1 µM amounted to 41%. In assay [1] (Table III), the BTX inhibition is given as 32. Moreover, the “Uptake (NA), rat, 10 μM, % inhibition” value in the assay on NA transporter stood at 41%.

As for `C=CCN1C(=O)C(CCSC)NC12CCN(C(=O)c1cccnc1SC)CC2` (stereo not shown) [Example 290, 1-Allyl-3-(2-methylsulfanylethyl)-8-(2-methylsulfanylpyridin-3-carbonyl)-1,4,8-triazaspiro[4,5]decan-2-one], in assay [1] (Table III), the BTX inhibition was 30. For the same molecule, in the assay on NA transporter, the “Uptake (NA), rat, 10 μM, % inhibition” value came to 31%.
